Data taken from patent publication US9120749B2, “Quinoline derivatives and MELK inhibitors containing the same” (ONCOTHERAPY SCIENCE, INC., priority 2010, dated 2015).

Columns and labels:
MELK = MELK (Homo sapiens, UniProt Q14680); experiment: Kinase assay: MELK activity, phosphorylation of FITC-labeled histone H3 peptide measured by IMAP fluorescence polarization; assay type: biochemical; conditions: read-out: IC50 (μM) (kinase assay)
In short: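 Substrate is FITC-labeled histone H3 peptide. Compounds come from a 12.5 mM DMSO stock, diluted so assay DMSO is 1%. The stop step adds threefold-volume progressive binding solution, followed by 0.5 h at room temperature and an FP read.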

T47D cells = experiment: Cell-based assay: anti-proliferative activity, Cell Counting Kit-8, 72 hours (T47D); conditions: Homo sapiens, T47D, 72 h
In short: (§1)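 IC50 values come from CCK-8 growth measurements taken 72 hours post-treatment of plated cells with test compounds. Expression of MELK across the panel was assessed through immunoblot of unfractionated lysates.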

A549 cells = experiment: Cell-based assay: anti-proliferative activity, Cell Counting Kit-8, 72 hours (A549); conditions: Homo sapiens, A549, 72 h, 72 hours
In short: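 A549 cells seeded in 96-well plates and exposed to candidate inhibitors for 72 hours. Growth measured with Cell Counting Kit-8; IC50 values calculated from the dose response.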

HT-1197 cells = experiment: Cell-based assay: anti-proliferative activity, Cell Counting Kit-8, 72 hours (HT-1197, negative control without MELK expression); conditions: Homo sapiens, HT1197, 72 h, HT1197 cells (negative control), 72 hours
In short: as §1

DU4475 cells = experiment: Cell-based assay: anti-proliferative activity, Cell Counting Kit-8, 72 hours (DU4475); conditions: Homo sapiens, DU-4475, 72 h

Chain of MELK (Q14680 whole entry, looked up): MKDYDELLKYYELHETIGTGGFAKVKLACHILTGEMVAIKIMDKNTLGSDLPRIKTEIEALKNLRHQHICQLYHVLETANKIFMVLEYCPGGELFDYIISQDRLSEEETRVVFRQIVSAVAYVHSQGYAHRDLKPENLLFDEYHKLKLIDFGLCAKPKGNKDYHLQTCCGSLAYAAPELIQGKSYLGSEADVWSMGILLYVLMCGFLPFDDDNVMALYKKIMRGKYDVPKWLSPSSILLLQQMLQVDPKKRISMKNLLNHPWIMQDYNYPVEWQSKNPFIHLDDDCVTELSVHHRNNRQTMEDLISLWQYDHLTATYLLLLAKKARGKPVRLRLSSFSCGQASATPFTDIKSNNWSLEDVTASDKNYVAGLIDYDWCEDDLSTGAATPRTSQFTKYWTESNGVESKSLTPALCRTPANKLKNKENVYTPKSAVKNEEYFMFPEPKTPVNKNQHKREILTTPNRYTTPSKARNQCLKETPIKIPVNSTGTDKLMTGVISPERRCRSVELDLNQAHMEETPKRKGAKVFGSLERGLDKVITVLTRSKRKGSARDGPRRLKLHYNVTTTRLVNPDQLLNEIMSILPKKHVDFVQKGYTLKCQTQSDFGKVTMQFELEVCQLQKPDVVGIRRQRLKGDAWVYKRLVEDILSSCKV

Row | SMILES | IC50 (MELK) [µM] | IC50 (T47D cells) [µM] | IC50 (A549 cells) [µM] | IC50 (HT-1197 cells) [µM] | IC50 (DU4475 cells) [µM]
1 | CCCC(=O)c1cnc2ccc(-c3cc(Cl)c(O)c(OC)c3)cc2c1Nc1ccc(N2CCNCC2)nc1 [Example 617, 1-(6-(3-chloro-4-hydroxy-5-methoxyphenyl)-4-(6-(piperazin-1-yl)pyridin-3-ylamino)quinolin-3-yl)butan-1-one] | 0.0042 | 0.33 | 0.19 | 1.7 | 0.32
2 | CN(C)Cc1ccc(Nc2c(C(=O)C3CC3)cnc3cc(F)c(-c4cc(F)c(O)c(Cl)c4)cc23)cc1 [Example 541, (6-(3-Chloro-5-fluoro-4-hydroxyphenyl)-4-(4-((dimethylamino)methyl)phenylamino)-7-fluoroquinolin-3-yl)(cyclopropyl)methanone] | 0.077 | 0.42 | 0.076 | 1.1 | 0.087
3 | COc1cc(-c2ccc3ncc(C(=O)C4CC4)c(Nc4cnc(N5CCC(N)C5)nc4)c3c2)cc(Cl)c1O (stereo not drawn) [Example 582, (4-(2-(3-aminopyrrolidin-1-yl)pyrimidin-5-ylamino)-6-(3-chloro-4-hydroxy-5-methoxyphenyl)quinolin-3-yl)(cyclopropyl)methanone] | 0.0031 | 0.052 | 0.097 | 1.1 | 0.064
4 | CN[C@H]1CC[C@H](Nc2c(C(=O)C3CC3)cnc3ccc(-c4cc(Cl)c(O)c(Cl)c4)cc23)CC1 [Example 510, Cyclopropyl{6-(3,5-dichloro-4-hydroxyphenyl)-4-[trans-4-(methylamino)cyclohexylamino]quinolin-3-yl}methanone] | 0.0019 | 0.054 | 0.12 | 1 | 0.018
5 | CN(CC#N)C[C@H]1CC[C@@H](Nc2c(C(=O)C3CC3)cnc3ccc(-c4cc(F)c(O)c(Cl)c4)cc23)CC1 [Example 524, 2-((((1R,4R)-4-(6-(3-Chloro-5-fluoro-4-hydroxyphenyl)-3-(cyclopropanecarbonyl)quinolin-4-ylamino)cyclohexyl)methyl)(methyl)amino)acetonitrile] | 0.01 | 0.2 | 0.39 | 1.7 | 0.1
6 | O=C(c1cnc2ccc(-c3cc(Cl)c(O)c(Cl)c3)cc2c1Nc1cnn(C2CCNCC2)c1)C1CC1 [Example 511, cyclopropyl(6-(3,5-dichloro-4-hydroxyphenyl)-4-((1-(piperidin-4-yl)-1H-pyrazol-4-yl)amino)quinolin-3-yl)methanone] | 0.017 | 0.18 | 0.31 | 10 | 0.019
7 | COc1cc(-c2ccc3ncc(C(=O)C4CC4)c(Nc4ccc(C(C)(C)N)cc4)c3c2)cc(Cl)c1O [Example 603, (4-(4-(2-aminopropan-2-yl)phenylamino)-6-(3-chloro-4-hydroxy-5-methoxyphenyl)quinolin-3-yl)(cyclopropyl)methanone] | 0.0036 | 0.52 | 0.64 | 1.7 | 0.37
8 | NC1CCCN(c2ncc(Nc3c(C(=O)C4CC4)cnc4ccc(-c5cc(F)c(O)c(Cl)c5)cc34)cn2)C1 (stereo not drawn) [Example 626, (4-(2-(3-aminopiperidin-1-yl)pyrimidin-5-ylamino)-6-(3-chloro-5-fluoro-4-hydroxyphenyl)quinolin-3-yl)(cyclopropyl)methanone] | 0.0011 | 0.0051 | 0.0073 | 0.05 | 0.0048
9 | COc1cc(-c2ccc3ncc(C(=O)C4CC4)c(N4CCN(C)CC4)c3c2)cc(Cl)c1O [Example 533, (6-(3-chloro-4-hydroxy-5-methoxyphenyl)-4-(4-methylpiperazin-1-yl)quinolin-3-yl)(cyclopropyl)methanone] | 0.0088 | 0.48 | 0.26 | 2.6 | 0.4
10 | CC(=O)c1cnc2ccc(-c3cc(F)c(O)c(Cl)c3)cc2c1Nc1cnc(N2CCNCC2)nc1 [Example 594, 1-(6-(3-chloro-5-fluoro-4-hydroxyphenyl)-4-(2-(piperazin-1-yl)pyrimidin-5-ylamino)quinolin-3-yl)ethanone] | 0.0048 | 0.025 | 0.063 | 0.66 | 0.048
11 | CCCC(=O)c1cnc2ccc(-c3cc(Cl)c(O)c(Cl)c3)cc2c1Nc1ccc(CN(C)C)cc1 [Example 530, 1-(6-(3,5-dichloro-4-hydroxyphenyl)-4-((4-((dimethylamino)methyl)phenyl)amino)quinolin-3-yl)butan-1-one] | 0.0045 | 0.07 | 0.15 | 1.2 | 0.086
12 | COc1cc(-c2ccc3ncc(C(=O)C4CC4)c(Nc4cnc(N5CCC(N)CC5)nc4)c3c2)cc(Cl)c1O [Example 553, (4-(2-(4-aminopiperidin-1-yl)pyrimidin-5-ylamino)-6-(3-chloro-4-hydroxy-5-methoxyphenyl)quinolin-3-yl)(cyclopropyl)methanone] | 0.0056 | 0.12 | 0.39 | 2.1 | 0.95
